≈ marks a conversion by molar mass, not a printed value. Where two headings read alike, the source gives them in different places. Where no end group is shown, it is not given here.
Columns and labels:
[1] = tested on: Salmonella typhimurim (clinical isolate); test: Antibacterial activity of cationic peptides (MBC); type: cell-based; details: S. typhimurium
Procedure: (§1) The gram-positive bacterial strains are: Enterococcus faecalis (ATCC 29212), and Staphylococcus aureus (ATCC 25923) and the gram-negative strains are: Escherichia coli (ATCC 25922), Pseudomonas aeruginosa (ATCC 27853) and Salmonella typhimurim (clinical isolate), Salmonella typhiTy2 (WHO). The bacteria are cultured with shaking all night at 37° C., then recultured at a dilution of 1:50 in some fresh Luria-Bertani (LB) medium for 2 hours. The bacterial concentration is adjusted to […], and 50 μl is distributed in 96-well plates with an equal volume of peptides diluted half and half (256-0.5 μg/ml) in LB medium. […] To determine the minimum bactericide concentration, 10 μl from each well is spread on gelose plates in LB medium.
(§2) The results are expressed as the peptide concentration in MBC (μM).

[2] = tested on: Salmonella typhiTy2 (WHO); test: microbe, parasite or virus in culture; type: cell-based, S. typhi-Ty2
Procedure: as §1, §2

[3] = tested on: Staphylococcus aureus (ATCC 25923); test: microbe, parasite or virus in culture; type: cell-based; details: S. aureus
Procedure: as §1, §2

[4] = tested on: Escherichia coli (ATCC 25922); test: microbe, parasite or virus in culture; type: cell-based; details: E. coli, read-out: MBC
Procedure: as §1, §2

[5] = tested on: Enterococcus faecalis (ATCC 29212); test: microbe, parasite or virus in culture; type: cell-based; details: E. faecalis
Procedure: as §1, §2

[6] = tested on: Pseudomonas aeruginosa (ATCC 27853); test: microbe, parasite or virus in culture; type: cell-based; details: P. aeruginosa
Procedure: as §1, §2

3T3 cells = test: In vitro transfection with luciferase plasmid using peptides; type: cell-based, mouse; details: for luciferase expression RLU: peptide and plasmid pCMVLUC complexed at 1.6 nmoles/μg; for RLU value relative to peptide SEQ ID NO: 41: 3T3 cells
Procedure: Technique: The plasmid pCMVLUC (carrying the gene for luciferase) provided by Qiagen is used according to their instructions. 3T3 cells are sown the night before in 24-well plates (8×10^4 cells/well) in the complete culture medium.
The peptides and the plasmid are complexed in a ratio of 1.6 nmoles/μg in 50 μl of NaCl 0.15M for 20 minutes at laboratory temperature. The cells are then washed, and the peptide-plasmid complex added to the cells in 0.5 ml of complete medium. After 5 hours of incubation at 37° C., the reaction medium is eliminated, and 1 ml of complete medium is added to the cells. After 24 hours of culture, the cells are then washed 3 times with PBS and lysed with 100 μl of lysis buffer (Promega) containing 1% Triton X-100 and 2 mM DTT for 15 minutes. The luciferase test is done on the cell lysate after centrifugation. The quantity of protein in the lysate is measured using the Bradford Test (Bio-Rad) and calculated according to a curve established with bovine gamma globulins. The luciferase activity is estimated on 15 μl of lysate plus 100 μl of reagent of luciferase containing luciferin (Promega). The relative luciferase units (RLU) are measured in a luminometer (Berthold Systems) and reported in mg of protein.

[7] = ELISA fixation of biotinylated peptides on sensitized plates; type: binding; details: read-out: avidity (Kd), quantity of peptides necessary to obtain 50% fixation, Heparin, Table 5
Procedure: The capacity of peptides SEQ ID NO: 1 to 21 to attach themselves to DNA and heparin is evaluated on ELISA plates sensitized with DNA or heparin. Dilutions of biotinylated peptides are deposited on the plates and their fixation is shown using streptavidin conjugated with peroxidase. […] The avidity of each of the peptides for DNA or heparin is evaluated by the quantity (×10^−6 M) of peptides necessary to obtain 50% fixation.

[8] = as above; type: binding; details: read-out: avidity (Kd), quantity of peptides necessary to obtain 50% fixation, Chondroitin C; Table 5
[9] = as above; type: binding; details: read-out: avidity (Kd), quantity of peptides necessary to obtain 50% fixation, Chondroitin A; Table 5
HeLa = test: Internalization of covalent peptide-peroxidase conjugates; type: cell-based, human; details: Table 9, 0.2 μg/ml conjugate, 2 hours
Procedure: (§3) To evaluate more directly the penetration of the peptides, avoiding the avidin-peroxidase bias, some of the peptides in sequences SEQ ID NO: 25 to 48 were conjugated covalently with cysteine in the C-terminal position of the peptide to peroxidase. The peptides were coupled with peroxidase in the following way:
(§4) One mg of peroxidase activated with maleimide (Sigma) in 100 μl of sodium phosphate buffer, NaCl 0.15 M, EDTA 5 mM, had 1 mg of peptide added to it. After 2 hours at laboratory temperature, β-mercaptoethanol is added to a final concentration of 1.5 mM for 15 minutes. The uncoupled peptide is eliminated by centrifugation on ultrafiltration membranes (cut-off threshold=30,000 Daltons, Sartorius), followed by three washings in sodium phosphate buffer 0.1 M, pH 7.4 containing 0.15 M NaCl.
(§5) It appears that the higher the concentration of peptide-peroxidase conjugate in the culture medium, the more the quantity internalized increases. To compare the penetration of the conjugates by cell type, the cells from different lines were incubated with 0.2 μg/ml of peptide-peroxidase conjugate for 2 hours, and the quantity of peroxidase dosed in the lysates. Table 9 and Table 9B below give the results expressed in pg/10^3 cells. The quantity of each peptide internalized in the different lines generally varies only from single to double.

3T3 = test: as above; type: cell-based, mouse; details: Table 9, 0.2 μg/ml conjugate, 2 hours
Procedure: as §3, §4, §5

[10] = ELISA fixation of biotinylated peptides on sensitized plates; type: binding; details: read-out: avidity (Kd), quantity of peptides necessary to obtain 50% fixation, Chondroitin B; Table 5
H1299 cells = test: Internalization of covalent peptide-peroxidase conjugates; type: cell-based, human; details: for Internalization of Peptide-peroxidase: Table 9, H1299, 0.2 μg/ml conjugate; for Internalization of Peptide-peroxidase / quantity of peptide internalized: 2 hours
Procedure: as §3, §4
The H1299 cells are incubated for 2 hours with the conjugates at increasing concentrations of peptide-peroxidase in the culture medium, then washed with PBS. The cells are lysed and the quantity of peptide internalized is evaluated by the dosage of peroxidase in the lysate of the cells with reference to a curve established with peptide-peroxidase.
The quantity of peptide internalized (pg/10^3 cells), depending on the concentrations of conjugates in the culture medium, is shown in Table 8 below.
as §5

HT29 cells = test: cells; type: cell-based; details: Homo sapiens, HT-29, Table 26, read-out: % inhibition of the growth of HT29 cells
From the text: N-phthalimidoglutarimide (thalidomide) is a molecule that has a great variety of properties, such as a teratogenic effect, reduction of the production of TNF-α by the monocytes and suppression of angiogenesis. It has been shown that the teratogenic activity depends on the glutarimide residue, while the antiangiogenic effect depends on the phthaloyl group. We therefore prepared peptide SEQ ID NO: 46 derived from peptide SEQ ID NO: 26 (HBP3)2 and added glycyl phthaloyl in N-terminal. The technique used to test the activity of phthaloyl-HBP3 is the same as the one previously described for aspirin. The results of the inhibition of the growth (%) of HT29 cells shown in Table 27 are calculated as a percentage of the mean optical density in the wells of cells containing dilutions of the samples being tested and the mean optical density of the wells of cells that received only medium.

cells = test: Penetration of biotinylated peptides inside cells (microscopy, S-PO coloration); type: cell-based; details: biotinylated peptides 50 to 6 μg/ml, 1-18 hours, revealed with S-PO
Procedure: The cells are cultivated in the presence of the different peptides carrying, on the N-terminal side, biotin in decreasing concentrations (50 to 6 μg/ml) in the culture medium for variable times (1-18 hours).
At the end of the culture, the cells are washed three times with PBS (0.15 M NaCl buffered with 0.01 M potassium phosphate buffer pH 7.4) then fixed 15 minutes in ethanol at −20° C. The penetration of the peptide is evaluated after incubation for 30 minutes with streptavidin conjugated with peroxidase (abbreviated S-PO for streptavidin-peroxidase). Then, the S-PO is eliminated, and the cells are washed. […] With the other peptides, positive colorations, but of variable intensity, were noted.

Molecule: CC1(C)S[C@@H]2[C@H](NC(=O)[C@H](N)c3ccccc3)C(=O)N2[C@H]1C(=O)O [Ampicillin, reference compound]
- MBC [1]: 11 µM (≈ 3.84 µg/mL)
- MBC ([2]; Salmonella, TYPHI): 5.5 µM (≈ 1.92 µg/mL)
- MBC ([3]; Staphylococcus aureus, ATCC25923): < 0.68 µM
- MBC ([4]; Escherichia coli, ATCC25922): 22 µM (≈ 7.69 µg/mL)
- MBC ([5]; Enterococcus faecalis, ATCC29212): 2.75 µM (≈ 0.961 µg/mL)
- MBC ([6]; Pseudomonas aeruginosa, ATCC27853): > 696 µM

Molecule: SEQ ID NO: 41: SEQ ID NO: 28 (HBP3)2) plus 13 N-terminal lysines (KKKKKKKKKKKKKSERKKRRRESRKKRRRES; listed as Homo sapiens)
- luciferase expression RLU (3T3 cells): 0.9 × 10^6/mg of protein

Molecule: SEQ ID NO: 40: SEQ ID NO: 10 (1047) plus 13 N-terminal lysines (KKKKKKKKKKKKKVKRGLKLRHVRPRVTRMDV; listed as Homo sapiens)
- RLU value relative to peptide SEQ ID NO: 41 (3T3 cells): 2.6 times
- luciferase expression RLU (3T3 cells): 1.9 × 10^6/mg of protein

Molecule: YRSRKYSSWYYALKR [SEQ ID NO: 34]
- Kd [7]: 45 nM
- Kd [8]: 25 nM
- Kd [9]: 47 nM
- Internalization of Peptide-peroxidase (HeLa): 3.4 pg/10^3 cells
- Internalization of Peptide-peroxidase (3T3): 9 pg/10^3 cells
- Kd [10]: 47 nM
- percentage of quantity of peroxidase internalized compared to quantity deposited (H1299 cells; 0.01 μg/ml): (0.01) %
- percentage of quantity of peroxidase internalized compared to quantity deposited (H1299 cells; 0.1 μg/ml): (1.4) %
- percentage of quantity of peroxidase internalized compared to quantity deposited (H1299 cells; 0.5 μg/ml): (8.14) %
- percentage of quantity of peroxidase internalized compared to quantity deposited (H1299 cells; 1 μg/ml): (10.9) %
- Internalization of Peptide-peroxidase (H1299 cells): 3.8 pg/10^3 cells
- quantity of peptide internalized (H1299 cells; peptide-peroxidase 0.01 μg/ml): 0.002 pg/10^3 cells
- quantity of peptide internalized (H1299 cells; peptide-peroxidase 0.1 μg/ml): 1.4 pg/10^3 cells
- quantity of peptide internalized (H1299 cells; peptide-peroxidase 0.5 μg/ml): 40.7 pg/10^3 cells
- quantity of peptide internalized (H1299 cells; peptide-peroxidase 1 μg/ml): 109 pg/10^3 cells

Molecule: CC(=O)Oc1ccccc1C(=O)O [Natural aspirin, aspirin, reference compound]
- inhibition at 100 µg/mL (HT29 cells; 100 μg/ml): 0%
- inhibition at 200 µg/mL (HT29 cells; 200 μg/ml): 3%
- inhibition at 500 µg/mL (HT29 cells; 500 μg/ml): 6%
- inhibition at 1000 µg/mL (HT29 cells; 1000 μg/ml): 48%

Molecule: VKRGLKLRHVRPRVTRMDV (listed as Homo sapiens) [SEQ ID NO: 10]
- Internalization of Peptide-peroxidase (HeLa): 4.7 pg/10^3 cells
- Internalization of Peptide-peroxidase (3T3): 35 pg/10^3 cells
- intracellular cytochemical coloration (cells): intense coloration
- Internalization of Peptide-peroxidase (H1299 cells): 10 pg/10^3 cells

Molecule: KLAKLAKKLAKLAKGKRKKKGKLGKKRDP [SEQ ID NO: 44]
- MBC [1]: 1.27 µM
- MBC ([2]; Ty2 (WHO)): 0.64 µM
- MBC [3]: >110 µM
- MBC [4]: 1.7 µM
- MBC [5]: >110 µM
- MBC [6]: >110 µM

Molecule: SEQ ID NO: 42: SEQ ID NO: 39 (HBP10) plus 13 N-terminal lysines (KKKKKKKKKKKKKSRRARRSPRHLGSG; listed as Homo sapiens)
- RLU value relative to peptide SEQ ID NO: 41 (3T3 cells): 5.5 times
- luciferase expression RLU (3T3 cells): 5 × 10^6/mg of protein

Molecule: KLAKLAKKLAKLAKKHLKKHLKKHLK [SEQ ID NO: 45]
- MBC [1]: 1 µM
- MBC ([2]; Ty2 (WHO)): 0.66 µM
- MBC [3]: >680 µM
- MBC [4]: 1 µM
- MBC [5]: >680 µM
- MBC [6]: 0.5 µM

Molecule: CC(C)C[C@H](NC(=O)[C@H](CCCCN)NC(=O)[C@H](C)NC(=O)[C@H](CC(C)C)NC(=O)[C@H](CCCCN)NC(=O)[C@H](CCCCN)NC(=O)[C@H](C)NC(=O)[C@H](CC(C)C)NC(=O)[C@H](CCCCN)NC(=O)[C@H](C)NC(=O)[C@H](CC(C)C)NC(=O)[C@@H](N)CCCCN)C(=O)N[C@@H](C)C(=O)N[C@@H](CCCCN)C(=O)O [SEQ ID NO: 24, reference compound]
- MBC [1]: 110 µM (≈ 168 µg/mL)
- MBC ([2]; S. typhi-Ty2): 27.5 µM (≈ 41.9 µg/mL)
- MBC [3]: >110 µM
- MBC [4]: 55 µM (≈ 83.8 µg/mL)
- MBC [5]: >110 µM
- MBC [6]: 27.5 µM (≈ 41.9 µg/mL)

Molecule: GLKKNGSCKRGPR [SEQ ID NO: 33]
- Kd ([7]; listed as HBP8): 168 nM
- Kd [8]: 110 nM
- Kd [9]: 225 nM
- Internalization of Peptide-peroxidase (HeLa): 2.1 pg/10^3 cells
- Internalization of Peptide-peroxidase (3T3): 7.6 pg/10^3 cells
- Kd [10]: 260 nM
- Internalization of Peptide-peroxidase (H1299 cells): 3.6 pg/10^3 cells

Molecule: QGKSKREKKDRVF [SEQ ID NO: 37]
- Kd [8]: 93 nM
- Kd [9]: 176 nM
- Internalization of Peptide-peroxidase (HeLa): 2.5 pg/10^3 cells
- Internalization of Peptide-peroxidase (3T3): 5.7 pg/10^3 cells
- Kd [10]: 173 nM
- Internalization of Peptide-peroxidase (H1299 cells): 4.3 pg/10^3 cells
